From patent publication US20040116369A1, “Interferon regulatory factor-1/human estrogen receptor fusion protein and its use for treating carcinomas” (priority 2001, published 2004)

Key:
[1] = system: NIH3T3TA/IH/MR cells; experiment: Proliferation (metabolic activity, WST); format: cell-based, murine; settings: +E2 1 μM, seven days after treatment
Description: (§1) Measurement of cell growth. For determination of cell growth 2×10^3 cells/well were seeded into microtiter plates and serial dilutions (1:1) were performed allowing several independent measurement points. Cells were treated with the indicated concentration of β-estradiol. Cell growth was determined using the WST kit (Roche Diagnostics, Mannheim, Germany) following the manufacturer's instruction. Mean values of triplicates resulting in less than 10% deviation were plotted.
The effects of IRF-1 in oncogenically transformed NIH3T3 cells were examined. NIH3T3 cells conditionally expressing the oncogenes c-myc and c-Ha-ras were used. Both oncogenes were bicistrinically expressed under the control of the tetracycline regulatable promoter (Kröger, Dissertation, Universität Braunschweig, 1999). The cells were stably transfected with the IRF-1-hER fusion protein encoding construct. This cell line allows the investigation of IRF-1 effects in the non-transformed NIH3T3 cells (presence of Doxycycline) and in the transformed state of the cells (absense of Doxycycline). The antitumoral activity of IRF-1 in vitro was investigated: Influence on proliferation, soft agar growth and IFN induction with and without IRF-1hER activation by E2 treatment were measured. This was done in the non-transformed as well as in the transformed state. E2 and Doxycyline were added for five days.

[2] = system: Hepa1-6 (wt) tumors; experiment: Subcutaneous tumor growth in syngeneic C57L/J mice; format: in vivo; settings: 1.5 mg E2 every two days i.p.
Source text: (§2) Tumor model. The Hepa1-6 tumor model in C57L/J mice (44) was chosen because they show reliable growth in the syngeneic host. Hepa1-6 cells are a derivative of the BW7756 mouse hepatoma that arose in a C57L mouse. MHC class I and II expression is identical between C57L and C57L/J mice and Hepa1-6 HCCs are characterized by AFP expression. […] After 6 days, tumors were visible and reached a size of about 2000 mm^3 after a mean time of 18 days. This tumor size was used as endpoint in the invention, and mice were subsequently sacrificed. Tumor incidence and volume were assessed every two days using calipers. Data are presented as mean volume±SE.
(§3) Tumor protection studies. C57L/J mice were inoculated with 1×10^7 Hepa1-6 (groups 1 and 2) or HepaIRF-1hER (groups 3 and 4) cells into the right flank. Group 5 was not inoculated with any tumor. The different groups were treated as follows:
(§4) The efficacy of IRF-1 activation as a therapeutic vaccine against tumors was examined. Mice were injected subcutaneosly with HepaIRF-1hER cells in the right flank and wt Hepa1-6 cells into the left flank. The animals were either treated with 1.5 mg E2 every two days or were left untreated. Activation of IRF-1-hER abolished tumor growth of HepaIRF-1hER cells on the right flank of the mice.

[3] = system: HepaIRF-1hER tumors; experiment: Subcutaneous tumor growth in syngeneic C57L/J mice; format: in vivo
Source text: as §2, §3, §4

[4] = system: NIH3T3TA/IH/MR cells; experiment: Anchorage independent growth in soft agar; format: cell-based, murine; settings: +E2 1 μM, two weeks after treatment
Description: Assay for anchorage independent growth. Anchorage-independent growth capability was determined by assessing the colony-formation efficiency of cells suspended in soft agar. 1×10^3 cells were seeded in 50 μl of 0.3% overlay agar in microtiter plates coated with 50 μl 0.6% underlay agar. The induction medium was added to the top (50 μl/well). […] To determine wether IRF-1 reverses the transformed phenotype of the cells to the formation of colonies in soft agar was assayed. […] In contrast, in the absence of Doxycycline (transformed status) the cells grew well and formed soft agar clones. The ability of soft agar growth was completely abolished by the activation of IRF-1 by E2 gift (Table 3).

[5] = system: HepaIRF-1hER cell clones; experiment: IFN secretion measured by antiviral assay in culture supernatant; format: cell-based, murine; settings: +E2 1 μM, five days, normalized to 10^6 cells
Description: For activation of IRF-1 in the IRF-1-hER fusion protein, E2 (SERVA, Frankfurt, Germany) was added to the cell culture medium to reach a final concentration of 1 μM.
(§5) IFN-Test. The interferon concentrations in the cell culture supernatants were determined by an antiviral assay imploying mouse L929 cells (43). To confirm the specificity of the antiviral activity a neutralizing monoclonal antibody directed against mouse IFN-β was added to the supernatant before addition to the test cells.

[6] = system: Hepa1-6 cell clones expressing IRF-1hER (c4, c9, c22); experiment: Cell growth (WST metabolic activity); format: cell-based, murine; settings: Mus musculus, Hepa1-6, 168 h, 7 days after IRF-1 activation, 1 μM β-estradiol, read-out: extent of proliferation inhibition
Description: as §1

[7] = system: NIH3T3TA/IH/MR cells; experiment: IFN secretion by antiviral assay; format: cell-based, murine; settings: +E2 1 μM, five days, normalized to 10^6 cells
Description: as §5
IFN secretion as determined by an antiviral assay was taken as a measure of IRF-1 activity.

[8] = system: NIH3T3TA/MR/IH cells; experiment: Tumor growth of transformed cells in nude mice; format: in vivo, NMRI nude mice; settings: 1.5 mg E2 every two days i.p.; 10^6 cells s.c.
Description: Male 6-8-week old NMRI nude mice (Harlan Winkelmann, Borchen, Germany) were maintained in the SPF unit of the animal facility of German Research Center for Biotechnology. Mice were divided into two experimental groups, five mice for each group. 1×10^6 cells in 0.2 ml PBS NIH3T3TA/MR/IH cells were injected subcutaneously into the flanks of the mice. The groups were treated as follows: group 1: no treatment (n=5); group 2: 1.5 mg of E2 every two days i.p. (n=4). Tumor volumes were measured and recorded three times a week using calipers. Data are presented as mean value of tumor volume.

Q: What does the source list for `C[C@]12CC[C@@H]3c4ccc(O)cc4CC[C@H]3[C@@H]1CC[C@@H]2O` [E2, β-estradiol]?
A: Proliferation ([1]; +DOX 2 μg/ml (non-transformed)): 60%; Proliferation ([1]; −Dox (transformed)): 65%; Tumor volume (mean ± SD) ([2]; Hepa1-6 (wt) 5 × 10^6 cells s.c.): 1630 ± 596 mm^3; Tumor volume (mean ± SD) ([2]; Hepa1-6 tumor on left flank of mice also carrying HepaIH on right flank): 179 ± 288 mm^3; Tumor volume (mean ± SD) ([3]; HepaIH 5 × 10^6 cells s.c., 1.5 mg E2 every two days i.p.): 22,4 ± 179 mm^3; mice protected against challenge ([3]; HepaIRF-1hER tumor, E2 treatment): 75%; tumor size after 40 days ([3]; the two E2 treated animals that developed tumors): 450 mm^3; Soft agar growth (number of clones) ([4]; +DOX 2 μg/ml (non-transformed)): 0; Soft agar growth (number of clones) ([4]; −Dox (transformed)): 0; IFN secretion ([5]; clone c4): 125 IU/ml; IFN secretion ([5]; clone c9): 125 IU/ml; IFN secretion ([5]; clone c22): 180 IU/ml; inhibition at 1 µM [6]: 40 to 80%; IFN secretion ([7]; +DOX 2 μg/ml): 750 IU/ml; IFN secretion ([7]; −Dox): 750 IU/ml; mice that developed no tumors [8]: 40%
